One experiment has as its system thrombosis. The note with it: U.S. Pat. No. 6,103,705, cited from earlier work.
Experiment [1] relates to TF-induced clot formation/strength. The experiment can be described thus: Tissue factor-triggered thrombelastography (TEG), clot strength. Format: cell-based. The note with it: GPIIb/IIIa antagonists added to TEG cup with CaCl2 and TF; mimics platelet removal from whole blood. As to the method:
Thrombelastography: Clot formation was monitored at 37° C. in an oscillating plastic cylindrical cuvette (“cup”) and a coaxially suspended stationary piston (“pin”) with a 1 mm clearance between the surfaces, using a computerized Thrombelastograph (CTEG Model 3000, Haemoscope, Skokie, Ill.) as described by Mousa et al., Athero Thromb Vasc Biol 2000. The cup oscillates 4°45′ ( 1/12 radian) in either direction every 4.5 seconds, with a 1 second mid-cycle stationary period; resulting in a frequency of 0.1 Hz and a maximal shear rate of 0.1 per second. The pin is suspended by a torsion wire that acts as a torque transducer. […] The torque experienced by the pin (relative to the cup's oscillation) is plotted as a function of time (Essel et al., J Cardiovascular Anesth., 7:410-415, 1993; Mousa et al., Arteriosclerosis Thromb Vasc Biol., 20:1162-1167, 2000). The amplitude on the TEG tracing is a measure of the rigidity of the clot; the peak strength or the shear elastic modulus attained by the clot, G, is a function of clot rigidity and can be calculated from the maximal amplitude (MA) of the TEG (Mousa et al., Arteriosclerosis Thromb Vasc Biol., 20:1162-1167, 2000).
Platelet Contribution to Clot Strength: To assess the effect of the TF modification on peak clot strength (G) was measured with and without the addition of TF in paired samples of WB and PRP. To document the contribution of activated platelets to the elastic modulus of fibrin clots, the effect of platelet number was measured by serially diluting PRP with PPP. The platelet count of each dilution was measured before performing TEG. Tissue factor-triggered TEG was performed with increasing concentrations added to the TEG cups. […] The Thrombelastograph maximum amplitude (MA) for platelets MA (PLT)) was calculated by subtracting the MA from a platelet-poor plasma (PPP) sample MA (PPP) determined in one TEG well from that of whole blood MA (WB) run simultaneously in the second TEG well.

Another experiment has as its system platelet aggregation. Particulars: combined with LMWH; 0.5 IU/ml thrombin; cited from earlier work.

These results are taken from patent US20030199457A1, “Prevention and treatment of thromboembolic disorders associated with arterial & venous thrombosis” (priority 2002, published 2003).

On to `CCCCS(=O)(=O)N[C@@H](Cc1ccc(OCCCCC2CCNCC2)cc1)C(=O)O` [BSPBPA], for which, in the experiment on thrombosis (intravenous, sub-effective or reduced levels), the “anti-thrombotic effect on co-administration with the LMWH enoxaparin” value is given as “enhanced anti-thrombotic effect”. Moreover, the “anti-thrombotic effect on co-administration with standard heparin” value in the experiment on thrombosis (same reduced level of the GPIIb/IIIa antagonist) is on record as “This was not the case”.
As to `CCCCOC(=O)N[C@@H](CNC(=O)C[C@H]1CC(c2ccc(C(=N)N)cc2)=NO1)C(=O)OC` [roxifiban], the “maximal blockade (clot strength)” value in experiment [1] stood at 80%. The “effect of sub-therapeutic concentrations on the dose-response relationship of LMWH” value in the experiment with platelet aggregation is recorded as “significant enhancement (synergy) of anti-thrombotic efficacy”.
On to `CCCCOC(=O)N[C@@H](CNC(=O)C[C@H]1CC(c2ccc(C(=N)N)cc2)=NO1)C(=O)O` [XV459], for which the “maximal blockade (clot strength)” value in experiment [1] came to 80%.

B1: Abciximab: monoclonal antibody for GPIIb/IIIa (c7E3 Fab) (antibody, chains of the INN, looked up, V domains shown)
VH: EVQLQQSGTVLARPGASVKMSCEASGYTFTNYWMHWVKQRPGQGLEWIGAIYPGNSDTSYIQKFKGKAKLTAVTSTTSVYMELSSLTNEDSAVYYCTLYDGYYVFAYWGQGTLVTVSA
VL: EIVLTQSPVTLSVTPGDSVSLSCRASRDISNNLHWFQQTSHESPRLLIKYASQSMSGIPSRFSGSGSGTDFTLSINSVETEDFGMYFCQQTNSWPYTFGGGTKLEIK
modifications: Fab
Consider B1, for which, in experiment [1], the “maximal blockade (clot strength)” value is on record as 80%. The “effect of sub-therapeutic concentrations on the dose-response relationship of LMWH” value in the experiment on platelet aggregation is reported as “significant enhancement (synergy) of anti-thrombotic efficacy”.
